Earlier results on three compounds are cited in US9353185B2, “Antibodies” (Affitech Research AS, priority 2010, dated 2016).

The subject of series [1] is acute myeloid leukaemia (AML). To be noted: Mozobil pre-conditioning prior to MEC chemotherapy; patients available for first follow-up evaluation; cited from earlier work.
Series [2] deals with X4 HIV strains. To be noted: in vitro and in vivo in clinical trials in humans; cited from earlier work.
The test system of series [3] is Th2-mediated inflammatory response. To be noted: Hu et al, 2006; cited from earlier work.
The test system of series [4] is CXCR4 expressing cell lines. To be noted: range of CXCR4 expressing cell lines; cited from earlier work.
Series [5] has as its system AML and lymphoma tumor xenograft models. As to conditions: multiple AML and lymphoma tumor xenograft models; cited from earlier work.

As to `c1cc(CN2CCCNCCNCCCNCC2)ccc1CN1CCCNCCNCCCNCC1` [AMD3100, plerixafor], the “complete remission (CR or CRi)” value in series [1] is on record as 50% of patients. The “inhibition of entry of X4 HIV strains” value in series [2] is listed as “very high efficacy”. For the compound `c1ccc(CNCc2ccc(CN3CCCNCCNCCCNCC3)cc2)nc1` [AMD3465], in series [3], the “effect on Th2-mediated inflammatory response” value is given as “abrogate the Th2-mediated inflammatory response”. Take “MDX-1338: anti-human CXCR4-specific, fully human monoclonal antibody from Medarex; an IgG4”: the induction of apoptosis result in series [4] is recorded as “induces apoptosis”. In series [5], the anti-tumor activity entry is “has anti-tumor activity”.
